Assay results taken from patent publication US20020025331A1, “Cosmetic compositions containing substituted amine derivatives” (priority 2000, published 2002).
Read-outs that look alike come from different tables or passages of the source.

System: human sebocytes
Experiment: Sebum suppression in cultured human sebocytes (14C-acetate incorporation), alone or with retinol
Type: cell-based
Settings: for sebum suppressive activity (in words): agent alone, summary of Tables 1-6
Method: Compounds A through E were tested for their potential to suppress sebum expression, alone or in the presence of a retinoid.
Secondary cultures of human sebocytes obtained from an adult […] were grown in 48-well tissue culture plates (Costar Corp.; Cambridge, MA) or 96-well tissue culture plates (Packard Co.; Meriden, CT) until confluent.
Sebocyte growth medium consisted of Clonetics Keratinocyte Basal Medium (KBM) supplemented with 14 μg/ml bovine pituitary extract, 0.4 μg/ml hydrocortisone, 5 μg/ml insulin, […], 1.2 ×10^-10 M cholera toxin, 100 units/ml penicillin, and 100 μg/ml streptomycin.
All cultures were incubated at 37° C. in the presence of 7.5% CO2. Medium was changed three times per week.
On the day of experimentation, the growth medium was removed and the sebocytes washed three times with sterile Dulbecco's Modified Eagle Medium (DMEM; phenol red free). Fresh DMEM was added to each sample (duplicates, triplicates, or quadruplicates depending on the experiment) with 5 microliter of test agent solubilized in ethanol either alone or in the presence of one or 10 micromolar of retinol. Controls consisted of addition of ethanol alone, retinol alone, or phenol red, which has estrogen-like activity and is included as a positive control.
Each plate was returned to the incubator for 20 hours followed by the addition of 14C-acetate buffer (5 mM final concentration, 56 mCi/mmol specific activity). Sebocytes were returned to the incubator for four hours after which each culture was rinsed three times with phosphate buffered saline to remove unbound label. Radioactive label remaining in the sebocytes was harvested and counted using a Beckman scintillation counter.

Structure (SMILES): CSc1ccc(NC(C)CC(c2ccccc2)c2c(O)c3ccccc3oc2=O)cc1 (centres unmarked) [Compound A]
- % of Control (Experiment A, 1 μM test agent + 10 μM Retinol): 94.3%
- % of Control (Experiment A, 1 μM test agent alone): 93.8%
- % of Control (Experiment A, 10 μM test agent + 10 μM Retinol): 88.6%
- % of Control (Experiment A, 10 μM test agent alone): 78.1%
- % of Control (Experiment A, 100 μM test agent + 10 μM Retinol): 6.2%
- % of Control (Experiment A, 100 μM test agent alone): 12.5%
- % of Control (Experiment B (n = 3), 1 μM test agent + 1 μM Retinol): 93.3%
- % of Control (Experiment B (n = 3), 1 μM test agent + 10 μM Retinol): 85.4%
- % of Control (Experiment B (n = 3), 1 μM test agent alone): 102.1%
- % of Control (Experiment B (n = 3), 10 μM test agent + 1 μM Retinol): 80.2%
- % of Control (Experiment B (n = 3), 10 μM test agent + 10 μM Retinol): 78.6%
- % of Control (Experiment B (n = 3), 10 μM test agent alone): 89.4%
- % of Control (Experiment B (n = 3), 100 μM test agent + 1 μM Retinol): 19.7%
- % of Control (Experiment B (n = 3), 100 μM test agent + 10 μM Retinol): 26.5%
- % of Control (Experiment B (n = 3), 100 μM test agent alone): 23.5%
- sebum suppressive activity (in words): had sebum suppressive activity

Structure (SMILES): CC1=C(/C=C/C(C)=C/C=C/C(C)=C/C=O)C(C)(C)CCC1 [Retinal, reference compound]
- activity at 1 µM (Homo sapiens, Experiment B (n = 3), 1 μM test agent alone, read-out: % of Control): 104%
- activity at 10 µM (Homo sapiens, Experiment B (n = 3), 10 μM test agent alone, read-out: % of Control): 101%

Structure (SMILES): O=S1(=O)OC(c2ccc(O)cc2)(c2ccc(O)cc2)c2ccccc21 [Phenol Red, reference compound]
- activity at 28 µM (Homo sapiens, Experiment B (n = 3), 28 μM alone, read-out: % of Control): 86.4%
- activity at 280 µM (Homo sapiens, Experiment B (n = 3), 280 μM alone, read-out: % of Control): 52.2%
- % Reduction (Table 3 (n = 4), 28 μM alone): 74.7%

Structure (SMILES): CC1=C(/C=C/C(C)=C/C=C/C(C)=C/CO)C(C)(C)CCC1 [Retinol, reference compound]
- activity at 10 µM (Homo sapiens, Experiment A, 10 μM test agent alone, read-out: % of Control): 98.3%
- sebum suppressive activity (in words): inactive

Structure (SMILES): COc1ccc(OC)c(C(C)NC/C=C(\C)CCC=C(C)C)c1 (centres unmarked) [Compound C]
- % of Control (96 Well Plate (n = 2), 10 μM test agent + 1 μM Retinol): 45.2%
- % of Control (96 Well Plate (n = 2), 10 μM test agent alone): 72.3%
- % of Control (96 Well Plate (n = 2), 50 μM test agent + 1 μM Retinol): 0.3%
- % of Control (96 Well Plate (n = 2), 50 μM test agent alone): 34.2%
- sebum suppressive activity (in words): had sebum suppressive activity
- sebum suppressive activity when combined with retinol / a retinoid (in words) (in the presence of a retinoid (retinol)): improved sebum suppressive activity
